Our source for the AC50 values is ChEMBL document CHEMBL5291721, “A preclinical secondary pharmacology resource illuminates target-adverse drug reaction associations of marketed drugs” (Nat Commun, 2023).

The target of one experiment is T1, Adenosine receptor A3 (Homo sapiens, UniProt P0DMS8).
T1 sequence (P0DMS8 whole entry): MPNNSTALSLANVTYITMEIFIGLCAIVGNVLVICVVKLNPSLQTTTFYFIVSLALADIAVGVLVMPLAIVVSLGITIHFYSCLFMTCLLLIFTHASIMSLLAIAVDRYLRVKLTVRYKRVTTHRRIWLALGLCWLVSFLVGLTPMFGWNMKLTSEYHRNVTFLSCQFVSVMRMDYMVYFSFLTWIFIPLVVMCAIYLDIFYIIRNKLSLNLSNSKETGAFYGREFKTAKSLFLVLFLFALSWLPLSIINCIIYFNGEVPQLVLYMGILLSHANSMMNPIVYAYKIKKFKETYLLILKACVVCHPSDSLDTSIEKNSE

In experiment [1] the target is T2, Type-1 angiotensin II receptor (Homo sapiens, UniProt P30556).
T2 sequence (P30556 whole entry): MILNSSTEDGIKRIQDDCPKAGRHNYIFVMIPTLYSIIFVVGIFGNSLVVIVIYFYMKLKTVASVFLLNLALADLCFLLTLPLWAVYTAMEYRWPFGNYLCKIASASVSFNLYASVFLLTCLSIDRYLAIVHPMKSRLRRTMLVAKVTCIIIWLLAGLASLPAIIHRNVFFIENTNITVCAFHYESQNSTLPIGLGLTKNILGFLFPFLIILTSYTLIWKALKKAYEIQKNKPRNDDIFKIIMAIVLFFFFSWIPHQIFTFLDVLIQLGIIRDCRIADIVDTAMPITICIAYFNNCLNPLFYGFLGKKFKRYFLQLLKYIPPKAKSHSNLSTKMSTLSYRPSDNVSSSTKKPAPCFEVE

The next experiment has as its target Vasopressin V1a receptor (Homo sapiens, UniProt P37288).
Experiment [2] has as its target T3, Muscarinic acetylcholine receptor M2 (Homo sapiens, UniProt P08172).
T3 sequence (P08172 whole entry): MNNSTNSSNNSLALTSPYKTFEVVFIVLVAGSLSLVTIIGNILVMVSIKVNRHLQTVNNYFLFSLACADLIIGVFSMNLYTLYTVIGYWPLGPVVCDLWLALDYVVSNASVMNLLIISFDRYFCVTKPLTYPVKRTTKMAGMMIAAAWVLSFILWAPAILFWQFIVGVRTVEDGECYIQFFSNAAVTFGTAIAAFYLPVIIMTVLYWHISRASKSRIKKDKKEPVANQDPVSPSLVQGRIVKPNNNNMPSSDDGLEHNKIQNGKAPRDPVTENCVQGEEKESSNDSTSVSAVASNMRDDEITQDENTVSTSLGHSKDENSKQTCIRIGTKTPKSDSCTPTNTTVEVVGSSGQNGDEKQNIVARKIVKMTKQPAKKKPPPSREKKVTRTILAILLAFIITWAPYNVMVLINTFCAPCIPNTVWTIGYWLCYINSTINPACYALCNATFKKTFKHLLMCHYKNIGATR
It counts as functional, cell-based.

Experiment [3] deals with Gamma-aminobutyric acid receptor subunit alpha-1 (Rattus norvegicus, UniProt P62813). It counts as functional.
Gamma-aminobutyric acid receptor subunit alpha-1, sequence (P62813 whole entry): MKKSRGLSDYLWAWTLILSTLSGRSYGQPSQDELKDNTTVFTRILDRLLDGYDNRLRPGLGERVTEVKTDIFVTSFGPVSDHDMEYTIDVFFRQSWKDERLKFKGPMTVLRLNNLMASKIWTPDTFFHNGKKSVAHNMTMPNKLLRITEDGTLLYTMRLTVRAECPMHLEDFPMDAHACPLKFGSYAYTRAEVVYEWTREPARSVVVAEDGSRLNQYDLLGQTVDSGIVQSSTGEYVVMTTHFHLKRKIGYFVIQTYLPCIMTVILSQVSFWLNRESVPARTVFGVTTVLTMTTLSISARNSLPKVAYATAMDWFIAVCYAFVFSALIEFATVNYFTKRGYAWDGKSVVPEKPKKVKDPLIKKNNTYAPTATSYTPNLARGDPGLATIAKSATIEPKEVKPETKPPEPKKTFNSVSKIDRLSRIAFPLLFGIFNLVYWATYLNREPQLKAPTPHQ
Experiment [4] deals with Growth hormone secretagogue receptor type 1 (Homo sapiens, UniProt Q92847).
Growth hormone secretagogue receptor type 1, sequence (Q92847 whole entry): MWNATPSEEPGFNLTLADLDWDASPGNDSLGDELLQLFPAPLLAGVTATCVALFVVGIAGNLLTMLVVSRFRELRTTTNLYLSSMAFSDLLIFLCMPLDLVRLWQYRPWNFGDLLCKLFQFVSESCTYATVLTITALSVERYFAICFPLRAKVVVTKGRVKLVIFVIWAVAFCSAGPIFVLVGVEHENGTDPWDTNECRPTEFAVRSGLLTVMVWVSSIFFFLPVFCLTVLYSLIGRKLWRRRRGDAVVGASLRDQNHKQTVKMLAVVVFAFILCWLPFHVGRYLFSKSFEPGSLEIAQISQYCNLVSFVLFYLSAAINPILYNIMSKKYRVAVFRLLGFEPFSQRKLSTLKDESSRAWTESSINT
Experiment [5] addresses T4, 5-hydroxytryptamine receptor 1A (Homo sapiens, UniProt P08908).
T4 sequence (P08908 whole entry): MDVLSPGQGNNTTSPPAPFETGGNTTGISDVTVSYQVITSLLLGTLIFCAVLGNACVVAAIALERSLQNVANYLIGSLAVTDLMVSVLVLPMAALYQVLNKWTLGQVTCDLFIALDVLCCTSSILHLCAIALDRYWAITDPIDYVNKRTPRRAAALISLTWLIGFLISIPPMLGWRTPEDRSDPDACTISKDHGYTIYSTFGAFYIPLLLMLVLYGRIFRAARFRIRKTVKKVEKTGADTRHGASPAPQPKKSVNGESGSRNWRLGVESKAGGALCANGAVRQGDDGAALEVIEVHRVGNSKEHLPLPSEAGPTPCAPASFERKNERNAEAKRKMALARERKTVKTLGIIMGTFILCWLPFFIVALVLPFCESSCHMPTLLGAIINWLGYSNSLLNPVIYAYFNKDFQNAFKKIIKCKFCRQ
Format: functional, cell-based.

The target in experiment [6] is T5, 5-hydroxytryptamine receptor 3A (Homo sapiens, UniProt P46098).
T5 sequence (P46098 whole entry): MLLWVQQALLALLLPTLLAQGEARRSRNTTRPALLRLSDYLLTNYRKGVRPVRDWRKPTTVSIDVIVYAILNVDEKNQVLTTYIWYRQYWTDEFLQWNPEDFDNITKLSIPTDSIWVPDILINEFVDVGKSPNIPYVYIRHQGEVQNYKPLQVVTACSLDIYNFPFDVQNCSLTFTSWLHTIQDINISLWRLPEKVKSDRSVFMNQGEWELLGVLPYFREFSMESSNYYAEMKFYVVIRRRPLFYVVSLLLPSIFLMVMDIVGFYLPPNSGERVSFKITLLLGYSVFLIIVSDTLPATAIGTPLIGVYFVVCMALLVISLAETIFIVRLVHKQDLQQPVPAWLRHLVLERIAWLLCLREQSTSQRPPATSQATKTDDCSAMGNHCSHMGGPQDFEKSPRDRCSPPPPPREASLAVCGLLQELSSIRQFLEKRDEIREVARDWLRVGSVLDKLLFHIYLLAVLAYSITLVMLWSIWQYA
Format: functional.

Experiment [7] deals with Delta-type opioid receptor (Homo sapiens, UniProt P41143).
Delta-type opioid receptor, sequence (P41143 whole entry): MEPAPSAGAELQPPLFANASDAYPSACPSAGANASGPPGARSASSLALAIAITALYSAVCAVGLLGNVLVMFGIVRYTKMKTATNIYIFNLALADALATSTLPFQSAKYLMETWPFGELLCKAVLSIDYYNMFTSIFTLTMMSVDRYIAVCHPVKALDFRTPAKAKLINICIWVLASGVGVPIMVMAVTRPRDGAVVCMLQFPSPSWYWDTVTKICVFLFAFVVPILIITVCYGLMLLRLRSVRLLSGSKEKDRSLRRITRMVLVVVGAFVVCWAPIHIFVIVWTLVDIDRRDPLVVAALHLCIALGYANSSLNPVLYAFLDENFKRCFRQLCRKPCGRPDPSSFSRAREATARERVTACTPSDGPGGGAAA
Experiment [8] deals with 3',5'-cyclic-AMP phosphodiesterase 4D (Homo sapiens, UniProt Q08499). It counts as functional.
3',5'-cyclic-AMP phosphodiesterase 4D, sequence (Q08499 whole entry): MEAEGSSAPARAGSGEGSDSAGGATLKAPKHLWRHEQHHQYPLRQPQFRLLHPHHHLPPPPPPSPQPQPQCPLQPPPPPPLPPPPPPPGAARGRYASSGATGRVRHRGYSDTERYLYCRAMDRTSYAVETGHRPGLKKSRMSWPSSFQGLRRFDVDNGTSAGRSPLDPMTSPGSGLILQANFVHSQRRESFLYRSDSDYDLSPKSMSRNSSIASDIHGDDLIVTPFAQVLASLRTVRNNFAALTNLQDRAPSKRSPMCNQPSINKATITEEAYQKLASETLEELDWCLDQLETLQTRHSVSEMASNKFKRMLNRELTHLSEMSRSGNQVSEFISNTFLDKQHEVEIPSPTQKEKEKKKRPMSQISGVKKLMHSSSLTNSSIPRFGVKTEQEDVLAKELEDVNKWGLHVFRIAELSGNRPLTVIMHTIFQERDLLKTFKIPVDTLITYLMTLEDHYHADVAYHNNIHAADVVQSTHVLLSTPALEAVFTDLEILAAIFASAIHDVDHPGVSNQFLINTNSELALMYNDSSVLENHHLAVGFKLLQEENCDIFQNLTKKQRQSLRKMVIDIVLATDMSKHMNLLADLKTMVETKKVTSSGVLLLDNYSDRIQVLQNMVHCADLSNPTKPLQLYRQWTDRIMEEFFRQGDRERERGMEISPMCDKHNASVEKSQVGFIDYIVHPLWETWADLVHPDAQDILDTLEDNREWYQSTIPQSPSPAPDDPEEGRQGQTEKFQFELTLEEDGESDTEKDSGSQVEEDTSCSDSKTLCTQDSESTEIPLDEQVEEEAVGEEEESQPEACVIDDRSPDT
The target of experiment [9] is T6, Amine oxidase [flavin-containing] A (Homo sapiens, UniProt P21397).
T6 sequence (P21397 whole entry): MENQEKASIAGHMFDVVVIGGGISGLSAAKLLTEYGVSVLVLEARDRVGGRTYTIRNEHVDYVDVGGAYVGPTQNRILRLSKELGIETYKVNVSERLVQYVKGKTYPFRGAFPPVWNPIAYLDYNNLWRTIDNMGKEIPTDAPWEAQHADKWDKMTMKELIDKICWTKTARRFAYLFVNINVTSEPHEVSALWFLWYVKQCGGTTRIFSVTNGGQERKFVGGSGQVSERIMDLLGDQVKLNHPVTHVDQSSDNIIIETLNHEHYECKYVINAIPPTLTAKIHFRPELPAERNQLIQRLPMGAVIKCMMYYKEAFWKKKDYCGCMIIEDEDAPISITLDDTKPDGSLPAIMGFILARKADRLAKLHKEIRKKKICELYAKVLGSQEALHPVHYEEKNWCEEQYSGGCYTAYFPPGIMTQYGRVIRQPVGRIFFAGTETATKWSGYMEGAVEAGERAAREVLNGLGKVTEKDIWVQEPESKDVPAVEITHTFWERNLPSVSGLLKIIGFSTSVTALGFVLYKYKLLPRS
Format: functional.
Further: assay procedure not described here.

Vasopressin V1a receptor, sequence (P37288 whole entry): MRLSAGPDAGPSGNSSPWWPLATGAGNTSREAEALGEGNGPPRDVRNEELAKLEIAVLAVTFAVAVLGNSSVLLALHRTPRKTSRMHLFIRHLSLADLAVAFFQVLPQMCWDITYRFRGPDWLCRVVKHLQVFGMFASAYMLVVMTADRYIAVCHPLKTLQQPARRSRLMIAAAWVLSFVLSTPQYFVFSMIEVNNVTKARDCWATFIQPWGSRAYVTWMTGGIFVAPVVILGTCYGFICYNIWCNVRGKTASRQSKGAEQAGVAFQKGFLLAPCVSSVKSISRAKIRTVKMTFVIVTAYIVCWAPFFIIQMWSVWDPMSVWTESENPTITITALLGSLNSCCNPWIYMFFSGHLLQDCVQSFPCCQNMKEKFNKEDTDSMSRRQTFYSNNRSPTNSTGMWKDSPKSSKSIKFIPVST

For the molecule `COc1cc2nc(N(C)CCCNC(=O)C3CCCO3)nc(N)c2cc1OC` (centres undefined) [ALFUZOSIN], the AC50 (at Adenosine receptor A3; in [1]; on Vasopressin V1a receptor; in experiment [2]; in experiment [3]; in experiment [4]) was more than 30 µM in each case. Moreover, the AC50 in [5], in experiment [6], in [7], in experiment [8] and in [9] was more than 30 µM throughout.

On to `N[C@@H]1[C@H]2CN(c3nc4c(cc3F)c(=O)c(C(=O)O)cn4-c3ccc(F)cc3F)C[C@@H]12` [TROVAFLOXACIN], for which the half-maximal activity concentration (AC50) (on Adenosine receptor A3; in experiment [1]; on Vasopressin V1a receptor; in experiment [2]; in [3]; in experiment [4]) was more than 30 µM in each case. Further, the AC50 in experiment [5], in experiment [6], in experiment [7], in experiment [8] and in experiment [9] was more than 30 µM throughout.

Consider `O=C(O[C@H]1C[C@H]2CC[C@@H](C1)[N+]21CCCC1)C(O)(c1ccccc1)c1ccccc1` [TROSPIUM], for which the AC50 at Adenosine receptor A3 is more than 30 µM; in experiment [1], more than 30 µM; at Vasopressin V1a receptor it was more than 30 µM; in [2], 0.0061 µM; in [3], more than 30 µM; in [4], more than 30 µM. The AC50 in [5], in experiment [6], in experiment [7], in experiment [8] and in experiment [9] was more than 30 µM each time.

Take `C=CCc1ccccc1OCC(O)CNC(C)C` (centres undefined) [ALPRENOLOL]: the half-maximal activity concentration (AC50) (at Adenosine receptor A3; in experiment [1]; on Vasopressin V1a receptor; in [2]; in [3]; in experiment [4]) was more than 30 µM throughout. The AC50 in experiment [5], in [6], in experiment [7], in experiment [8] and in [9] was more than 30 µM throughout.

Turning to `COc1ccccc1OCC(O)CN1CCN(CC(=O)Nc2c(C)cccc2C)CC1` (centres undefined) [RANOLAZINE], the concentration at half-maximal activity (AC50) (at Adenosine receptor A3; in [1]; on Vasopressin V1a receptor; in [2]; in [3]; in [4]) was more than 30 µM throughout. In addition, the half-maximal activity concentration (AC50) in experiment [5], in experiment [6], in experiment [7], in [8] and in experiment [9] was more than 30 µM each time.

Regarding `CC[C@H]1OC(=O)[C@H](C)[C@@H](O[C@H]2C[C@@](C)(OC)[C@@H](O)[C@H](C)O2)[C@H](C)[C@@H](O[C@@H]2O[C@H](C)C[C@H](N(C)C)[C@H]2O)[C@](C)(O)C[C@@H](C)CN(C)[C@H](C)[C@@H](O)[C@]1(C)O` [AZITHROMYCIN], the AC50 is more than 30 µM on Adenosine receptor A3; more than 30 µM in experiment [1]; more than 10 µM at Vasopressin V1a receptor; more than 10 µM in [2]; more than 10 µM in experiment [3]; more than 30 µM in experiment [4]. The AC50 in [5] is more than 10 µM; in experiment [6], more than 10 µM; in [7], more than 10 µM; in [8], more than 30 µM; in experiment [9], more than 10 µM.

In the case of `c1cnc(N2CCN(Cc3ccc4c(c3)OCO4)CC2)nc1` [PIRIBEDIL], the AC50 on Adenosine receptor A3 is more than 30 µM; in experiment [1] it was more than 30 µM; at Vasopressin V1a receptor, more than 30 µM; in experiment [2], more than 30 µM; in experiment [3], more than 30 µM; in [4], 30 µM. In addition, the AC50 in [5], in experiment [6], in experiment [7], in experiment [8] and in experiment [9] was more than 30 µM throughout.

`CC1(C)NC(=O)N(c2ccc([N+](=O)[O-])c(C(F)(F)F)c2)C1=O` [NILUTAMIDE]: the AC50 (at Adenosine receptor A3; in [1]; at Vasopressin V1a receptor; in experiment [2]; in experiment [3]; in experiment [4]) was more than 30 µM throughout. For the same molecule, the concentration at half-maximal activity (AC50) in [5] was more than 30 µM; in experiment [6] it was more than 30 µM; in experiment [7] it was more than 30 µM; in experiment [8] it was 28 µM; in experiment [9], more than 30 µM.

For the molecule `O=C1Nc2ccc(Cl)cc2[C@@](C#CC2CC2)(C(F)(F)F)O1` [EFAVIRENZ], the AC50 on Adenosine receptor A3 was 6 µM; in experiment [1], 13 µM; at Vasopressin V1a receptor, more than 30 µM; in experiment [2], more than 10 µM; in experiment [3], more than 10 µM; in experiment [4] it was more than 30 µM. Besides, the AC50 in [5] is more than 10 µM; in experiment [6], more than 30 µM; in [7], more than 30 µM; in [8], 15 µM; in experiment [9], more than 30 µM.

One may read the AC50 as the concentration giving half of the maximal activity seen. Higher therefore signals activity only at high concentration.
